Like-named read-outs stand apart in the source and are kept apart here.
How the values were obtained:
[1] = intrinsic dissolving rates; format: physicochemical; details: pH 1, pH 4.5 and pH 6.8; compared with valsartan
[2] = dissolving profile of film-coated tablet; format: physicochemical; details: within 15 minutes
Experimental: In addition, an improved dissolving profile in a tablet can be assured. In studies of the dissolving profile, it was established that the calcium salt, especially the tetrahydrate thereof, is released by 100% from a film-coated tablet within 15 minutes.
In addition, an improved dissolving profile in a tablet can be assured. In studies of the dissolving profile, it was established that the magnesium salt, especially the hexahydrate thereof, is released by 100% from a film-coated tablet within 15 minutes.

[3] = N2 atmosphere, heating rate 10 K/min
[4] = 25° C., 4 hours
[5] = open container and sealed ampoule
[6] = hygroscopicity of the material obtained; format: physicochemical; details: material as obtained
[7] = step 1, relative humidity 40% (cycle 40-90)
[8] = step 2, relative humidity 50% (cycle 40-90)
[9] = step 3, relative humidity 60% (cycle 40-90)
[10] = step 4, relative humidity 70% (cycle 40-90)
[11] = step 5, relative humidity 80% (cycle 40-90)
[12] = step 6, relative humidity 90% (cycle 40-90)
[13] = step 7, relative humidity 80% (first cycle 90-0)
[14] = step 8, relative humidity 70% (first cycle 90-0)
[15] = step 9, relative humidity 60% (first cycle 90-0)
[16] = step 10, relative humidity 50% (first cycle 90-0)
[17] = step 11, relative humidity 40% (first cycle 90-0)
[18] = step 12, relative humidity 30% (first cycle 90-0)
[19] = step 13, relative humidity 20% (first cycle 90-0)
[20] = step 14, relative humidity 10% (first cycle 90-0)
[21] = step 15, relative humidity 0% (first cycle 90-0)
[22] = step 16, relative humidity 10% (cycle 0-90)
[23] = step 17, relative humidity 20% (cycle 0-90)
[24] = step 18, relative humidity 30% (cycle 0-90)
[25] = step 19, relative humidity 40% (cycle 0-90)
[26] = step 20, relative humidity 50% (cycle 0-90)
[27] = step 21, relative humidity 60% (cycle 0-90)
[28] = step 22, relative humidity 70% (cycle 0-90)
[29] = step 23, relative humidity 80% (cycle 0-90)
[30] = step 24, relative humidity 90% (cycle 0-90)
[31] = step 25, relative humidity 0% (second cycle 90-0)
[32] = step 26, relative humidity (starting value)

Q: What does the source list for `CCCCC(=O)N(Cc1ccc(-c2ccccc2-c2nn[n-]n2)cc1)C(C(=O)[O-])C(C)C.[Ca+2]` (centres unmarked) [calcium salt of valsartan]?
A: intrinsic dissolving rates [1]: improved values over those of valsartan; release from a film-coated tablet [2]: 100%

Q: For `CCCCC(=O)N(Cc1ccc(-c2ccccc2-c2nn[n-]n2)cc1)C(C(=O)[O-])C(C)C.[K+].[K+]` (centres unmarked) [di-potassium salt of valsartan], which intrinsic dissolving rates [1] is on record?
A: The intrinsic dissolving rates was “improved values over those of valsartan”.

Q: For `CCCCC(=O)N(Cc1ccc(-c2ccccc2-c2nnn[nH]2)cc1)[C@H](C(=O)[O-])C(C)C.CCCCC(=O)N(Cc1ccc(-c2ccccc2-c2nnn[nH]2)cc1)[C@H](C(=O)[O-])C(C)C.O.O.O.O.O.O.[Mg+2]` [hexahydrate of the magnesium salt of (S)-N-(1-carboxy-2-methylprop-1-yl)-N-pentanoyl-N-[2′-(1H-tetrazol-5-yl)biphenyl-4-ylmethyl]-amine], which “weight loss or water loss in %” value ([3]; 25° C.) is on record?
A: The value was 0%.

Q: What about the “weight loss or water loss in %” value ([3]; 50° C.) of the same compound?
A: Its value is 1.2%.

Q: And the “weight loss or water loss in %” value ([3]; 75° C.)?
A: The value was 4.2%.

Q: What about the “weight loss or water loss in %” value ([3]; 100° C.) of the same compound?
A: The value was 11.0%.

Q: And the “weight loss or water loss in %” value ([3]; 125° C.)?
A: Its value is 16.7%.

Q: And the “weight loss or water loss in %” value ([3]; 150° C.)?
A: Its value is 17.7%.

Q: What about the “weight loss or water loss in %” value ([3]; 175° C.) of the same compound?
A: Its value is 18.3%.

Q: What about the “weight loss or water loss in %” value ([3]; 200° C.) of the same compound?
A: Its value is 18.5%.

Q: What about the “weight loss or water loss in %” value ([3]; 225° C.) of the same compound?
A: The value was 18.7%.

Q: And the “weight loss or water loss in %” value ([3]; 250° C.)?
A: The value was 18.9%.

Q: What about the “weight loss or water loss in %” value ([3]; 275° C.) of the same compound?
A: Its value is 19.3%.

Q: What about the “water absorption or water loss (overall finding)” value ([4]; range of 20 to 80% relative humidity, measurement error about 0.1%) of the same compound?
A: The value was “weak, reproducible water absorption or water loss”.

Q: What about the “water absorption or loss in %” value [4, 7] of the same compound?
A: Its value is 0.06%.

Q: What about the “water absorption or loss in %” value [4, 8] of the same compound?
A: Its value is 0.14%.

Q: And the “water absorption or loss in %” value [4, 9]?
A: The value was 0.19%.

Q: And the “water absorption or loss in %” value [4, 10]?
A: The value was 0.25%.

Q: And the “water absorption or loss in %” value [4, 11]?
A: The value was 0.41%.

Q: And the “water absorption or loss in %” value [4, 12]?
A: Its value is 0.58%.

Q: And the “water absorption or loss in %” value [4, 13]?
A: The value was 0.32%.

Q: And the “water absorption or loss in %” value [4, 14]?
A: The value was 0.22%.

Q: And the “water absorption or loss in %” value [4, 15]?
A: Its value is 0.14%.

Q: And the “water absorption or loss in %” value [4, 16]?
A: The value was 0.08%.

Q: What about the “water absorption or loss in %” value [4, 17] of the same compound?
A: The value was 0.16%.

Q: And the “water absorption or loss in %” value [4, 18]?
A: The value was −0.03%.

Q: And the “water absorption or loss in %” value [4, 19]?
A: Its value is −0.07%.

Q: And the “water absorption or loss in %” value [4, 20]?
A: The value was −0.12%.

Q: And the “water absorption or loss in %” value [4, 21]?
A: Its value is −4.3%.

Q: What about the “water absorption or loss in %” value [4, 22] of the same compound?
A: Its value is −0.79%.

Q: And the “water absorption or loss in %” value [4, 23]?
A: Its value is −0.14%.

Q: What about the “water absorption or loss in %” value [4, 24] of the same compound?
A: The value was −0.05%.

Q: And the “water absorption or loss in %” value [4, 25]?
A: Its value is 0.02%.

Q: And the “water absorption or loss in %” value [4, 26]?
A: Its value is 0.09%.

Q: And the “water absorption or loss in %” value [4, 27]?
A: Its value is 0.14%.

Q: And the “water absorption or loss in %” value [4, 28]?
A: Its value is 0.20%.

Q: What about the “water absorption or loss in %” value [4, 29] of the same compound?
A: Its value is 0.28%.

Q: And the “water absorption or loss in %” value [4, 30]?
A: The value was 0.51%.

Q: What about the “water absorption or loss in %” value [4, 31] of the same compound?
A: The value was −3.68%.

Q: What about the “water absorption or loss in %” value [4, 32] of the same compound?
A: The value was −0.01%.

Q: And the “water content in stability test” value [5]?
A: The value was “remains constant”.

Q: What does the source list for “(S)-N-(1-carboxy-2-methyl-prop-1-yl)-N-pentanoyl-N-[2′-(1H-tetrazol-5-yl)-biphenyl-4-ylmethyl]-amine calcium salt tetrahydrate”?
A: weight loss or water loss in % ([3]; 25° C.): 0%; weight loss or water loss in % ([3]; 50° C.): 0%; weight loss or water loss in % ([3]; 75° C.): 0.5%; weight loss or water loss in % ([3]; 100° C.): 3.5%; weight loss or water loss in % ([3]; 125° C.): 10.2%; weight loss or water loss in % ([3]; 150° C.): 12.4%; weight loss or water loss in % ([3]; 175° C.): 12.8%; weight loss or water loss in % ([3]; 200° C.): 12.9%; weight loss or water loss in % ([3]; 225° C.): 12.9%; weight loss or water loss in % ([3]; 250° C.): 13.0%; weight loss or water loss in % ([3]; 275° C.): 13.2%; water absorption or loss (overall finding) ([4]; 0 to 90% relative humidity, measurement error about 0.1%): no measurable water absorption or loss; water absorption or loss in % [4, 7]: 0.04%; water absorption or loss in % [4, 8]: 0.04%; water absorption or loss in % [4, 9]: 0.03%; water absorption or loss in % [4, 10]: 0.02%; water absorption or loss in % [4, 11]: 0.02%; water absorption or loss in % [4, 12]: 0.00%; water absorption or loss in % [4, 13]: 0.02%; water absorption or loss in % [4, 14]: 0.02%; water absorption or loss in % [4, 15]: 0.02%; water absorption or loss in % [4, 16]: 0.02%; water absorption or loss in % [4, 17]: 0.02%; water absorption or loss in % [4, 18]: 0.01%; water absorption or loss in % [4, 19]: 0.01%; water absorption or loss in % [4, 20]: 0.00%; water absorption or loss in % [4, 21]: −0.01%; water absorption or loss in % [4, 22]: 0.00%; water absorption or loss in % [4, 23]: 0.00%; water absorption or loss in % [4, 24]: 0.00%; water absorption or loss in % [4, 25]: 0.00%; water absorption or loss in % [4, 26]: 0.00%; water absorption or loss in % [4, 27]: 0.01%; water absorption or loss in % [4, 28]: 0.00%; water absorption or loss in % [4, 29]: −0.01%; water absorption or loss in % [4, 30]: −0.02%; water absorption or loss in % [4, 31]: −0.02%; water absorption or loss in % [4, 32]: 0.00%; water content in stability test [5]: remains constant

Q: For “(S)-N-(1-carboxy-2-methyl-prop-1-yl)-N-pentanoyl-N-[2′-(1H-tetrazol-5-yl)-biphenyl-4-ylmethyl]-amine dipotassium salt [Example 4]”, which hygroscopicity [6] is on record?
A: The hygroscopicity was “hygroscopic”.

Q: For “(S)-N-(1-carboxy-2-methyl-prop-1-yl)-N-pentanoyl-N-[2′-(1H-tetrazol-5-yl)-biphenyl-4-ylmethyl]-amine disodium salt [Example 5]”, which hygroscopicity [6] is on record?
A: Its hygroscopicity is “hygroscopic”.

Q: For “Bis-dibutylammonium Salt of Valsartan [Example 16]”, which hygroscopicity [6] is on record?
A: The hygroscopicity was “slightly hygroscopic”.

Q: Which hygroscopicity [6] does the source give for “Hydrate of Valsartan Disodium Salt (2.4 ±1.0 Mole H2O) [Example 11]” here?
A: Its hygroscopicity is “slightly hygroscopic”.

Q: With “Hydrate of the Valsartan Dipotassium Salt (3.4±1.0 mole H2O) [Example 12]” as the compound, how does the hygroscopicity [6] read?
A: Its hygroscopicity is “slightly hygroscopic”.
